Laboratory results from patent US20240148821A1, “PHARMACEUTICAL USE OF CYCLIC PEPTIDE COMPOUND” (CHUGAI SEIYAKU KABUSHIKI KAISHA, priority 2021, published 2024).
Numbered stars: 1 amine (or outer) side, 2 acyl side, 3 side chain; on linkers, the order of the positions; unused ones are H or OH. Bridge positions count the residues as written; N and C are the ends. Square brackets hold non-standard residues; d marks the D form. Peptide text beside a SMILES is read from it. * marks the point of attachment. hPhe(3,5-F2-4-CF3) = N[C@@H](CCc1cc(F)c(C(F)(F)F)c(F)c1)C(=O)O; hPhe(3-Cl-4-CF3) = N[C@@H](CCc1ccc(C(F)(F)F)c(Cl)c1)C(=O)O; hPhe(3-F,4-CF3) = N[C@@H](CCc1ccc(C(F)(F)F)c(F)c1)C(=O)O; NMePhe(4-CF3) = CN[C@@H](Cc1ccc(C(F)(F)F)cc1)C(=O)O; hPhe(4-CF3) = N[C@@H](CCc1ccc(C(F)(F)F)cc1)C(=O)O; 3Oxa8azabicyclo(3.2.1)octane = C1CC2COCC1N2*; NMePhe(4-Cl) = CN[C@@H](Cc1ccc(Cl)cc1)C(=O)O; NMePhe(4-Me) = CN[C@@H](Cc1ccc(C)cc1)C(=O)O; NMedβ3hAla = C[C@H](CC(=O)[*:2])N(C)[*:1]; NMeAla(cPent) = CN[C@@H](CC1CCCC1)C(=O)O; NMeGly(cPent) = CN[C@H](C(=O)O)C1CCCC1; Pro(4,4-F2) = O=C(O)[C@@H]1CC(F)(F)CN1; NMe3Pal = CN[C@@H](Cc1cccnc1)C(=O)O; NMeCha = CN[C@@H](CC1CCCCC1)C(=O)O; NMeChg = CN[C@H](C(=O)O)C1CCCCC1; NMeI = CC[C@H](C)[C@H](NC)C(=O)O; NMeT = CN[C@H](C(=O)O)[C@@H](C)O; NMeD = CN[C@@H](CC(=O)O)C(=O)O; NMeL = CN[C@@H](CC(C)C)C(=O)O; NMePra = C#CC[C@H](NC)C(=O)O; NMeV = CN[C@H](C(=O)O)C(C)C; d(β3hA) = C[C@@H](N)CC(=O)O; NMeS = CN[C@@H](CO)C(=O)O; Morpholide = C1CN(*)CCO1; NMeA = CN[C@@H](C)C(=O)O; NMeAib = CNC(C)(C)C(=O)O; Piperidide = C1CCN(*)CC1; Pyrrolidide = C1CCN(*)C1; Ac5c = NC1(C(=O)O)CCCC1; Aze = O=C(O)[C@@H]1CCN1; Aib = CC(C)(N)C(=O)O; Isopentyl = CC(C)CC*; Sar = CNCC(=O)O

Columns and labels:
[1] = target: protein-protein interaction between Kras and SOS1 (biotin-tagged human Kras loaded with GDP, His-tagged human SOS1) (Homo sapiens (Human), UniProt P01116, G12D); assay: Protein-protein interaction inhibition between Kras and SOS1 (KrasG12D-SOS PPI) using AlphaScreen; type: biochemical; details: AlphaScreen; biotin-tagged human Kras loaded with GDP, His-tagged human SOS1; read-out: KRAS G12D-SOS PPI IC50;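 further: kras produced in E. coli, Ni-coupled donor beads and streptavidin acceptor beads, excitation 680 nm with emission detected at 520–620 nm via singlet oxygen transfer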
[2] = system: Human pancreatic cancer cell line AsPC-1 (G12D mutation Kras); assay: AsPC-1 cell growth inhibition (AsPC-1 CGI); type: cell-based; details: read-out: AsPC-1 cell growth inhibition, 50% growth inhibitory concentration (IC50 value); 96 hours, CellTiter-Glo, values classified in ranges
Method: Test compounds were serially dilated with dimethyl sulfoxide, and 200 nL was then dispensed to a U-bottom 96-well plate using Labcyte Echo. […] The cell suspension was dispensed to a. plate containing a test compound at 100 μL per well and incubated at 37° C. in a 5% carbon dioxide gas incubator. 96 hours later, 80 μL of CellTiter-Glo (Promega) was added to each well and fluorescence was measured.

Row | SMILES | IC50 [1] [nM] | IC50 [2] [nM]
1 | CC[C@H](C)[C@@H]1NC(=O)[C@H](CC(C)C)N(C)C(=O)C[C@@H](C(=O)N2C3CCC2COC3)N(C)C(=O)[C@H](C2CCCC2)N(C)C(=O)C2(CCCC2)NC(=O)[C@@H]2CCCN2C(=O)[C@H](CCc2ccc(C(F)(F)F)c(Cl)c2)NC(=O)CN(C)C(=O)[C@H](C2CCCC2)N(C)C(=O)[C@@H]2CCN2C(=O)[C@H](C)N(C)C1=O [Compound 721] ([NMeL]I[NMeA][Aze][NMeGly(cPent)][Sar][hPhe(3-Cl-4-CF3)]P[Ac5c][NMeGly(cPent)][NMeD]-{3Oxa8azabicyclo(3.2.1)octane}; lactam N-11) | 1.5 | ≤ 20
2 | CC[C@H](C)[C@@H]1NC(=O)[C@H](CC2CCCC2)N(C)C(=O)C[C@@H](C(=O)N2CCCC2)N(C)C(=O)[C@H]([C@@H](C)CC)N(C)C(=O)C2(CCCC2)NC(=O)[C@@H]2CCCN2C(=O)[C@H](CCc2ccc(C(F)(F)F)c(Cl)c2)NC(=O)CN(C)C(=O)[C@H](Cc2ccc(C(F)(F)F)cc2)N(C)C(=O)[C@@H]2CCN2C(=O)[C@H](C)NC1=O [Compound 1320] ([NMeAla(cPent)]IA[Aze][NMePhe(4-CF3)][Sar][hPhe(3-Cl-4-CF3)]P[Ac5c][NMeI][NMeD]-Pyrrolidide; lactam N-11) | 1.4 | ≤ 20
3 | CC[C@H](C)[C@@H]1NC(=O)[C@H](C)N(C)C(=O)C[C@@H](C)NC(=O)[C@H](CC(C)C)N(C)C(=O)C(C)(C)NC(=O)[C@H](CC(C)C)N(C)C(=O)[C@H](CCc2ccc(C(F)(F)F)cc2)NC(=O)CN(C)C(=O)[C@H](Cc2ccc(Cl)cc2)N(C)C(=O)CN(C)C(=O)CN(C)C1=O [Compound 788] (cyclo([Aib][NMeL][d(β3hA)][NMeA]I[Sar][Sar][NMePhe(4-Cl)][Sar][hPhe(4-CF3)][NMeL])) | 13 | > 500
4 | CC[C@H](C)[C@@H]1NC(=O)[C@H](CC(C)C)N(C)C(=O)C[C@@H](C(=O)N2CCCCC2)N(C)C(=O)[C@H](C2CCCCC2)N(C)C(=O)C2(CCCC2)NC(=O)[C@H]([C@@H](C)O)N(C)C(=O)[C@H](CCc2ccc(C(F)(F)F)c(Cl)c2)NC(=O)CN(C)C(=O)[C@H](CC2CCCCC2)N(C)C(=O)CN(C)C(=O)CN(C)C1=O [Compound 118] ([NMeL]I[Sar][Sar][NMeCha][Sar][hPhe(3-Cl-4-CF3)][NMeT][Ac5c][NMeChg][NMeD]-Piperidide; lactam N-11) | 1.9 | > 500
5 | CC[C@H](C)[C@@H]1NC(=O)[C@H](CC(C)C)N(C)C(=O)C[C@@H](C(=O)N2CCOCC2)N(C)C(=O)[C@H]([C@@H](C)CC)N(C)C(=O)C2(CCCC2)NC(=O)[C@@H]2CC(F)(F)CN2C(=O)[C@H](CCc2cc(F)c(C(F)(F)F)c(F)c2)NC(=O)CN(C)C(=O)[C@H](Cc2ccc(C(F)(F)F)cc2)N(C)C(=O)[C@@H]2CCN2C(=O)[C@H](C)N(C)C1=O [Compound 1348] ([NMeL]I[NMeA][Aze][NMePhe(4-CF3)][Sar][hPhe(3,5-F2-4-CF3)][Pro(4,4-F2)][Ac5c][NMeI][NMeD]-Morpholide; lactam N-11) | 0.62 | ≤ 20
6 | CC[C@H](C)[C@@H]1NC(=O)[C@H](CC(C)C)N(C)C(=O)C[C@@H](C(=O)N2CCCCC2)N(C)C(=O)[C@H](C2CCCCC2)N(C)C(=O)C2(CCCC2)NC(=O)[C@H](COCCC(C)C)N(C)C(=O)[C@H](CCc2ccc(C(F)(F)F)c(Cl)c2)NC(=O)CN(C)C(=O)[C@H](CC2CCCCC2)N(C)C(=O)CN(C)C(=O)CN(C)C1=O [Compound 940] ([NMeL]I[Sar][Sar][NMeCha][Sar][hPhe(3-Cl-4-CF3)][NMeS](Isopentyl)[Ac5c][NMeChg][NMeD]-Piperidide; lactam N-11) | 150 | > 500
7 | CC[C@H](C)[C@@H]1NC(=O)[C@H](CC(C)C)N(C)C(=O)C[C@@H](C(=O)N2CCCCC2)N(C)C(=O)[C@H](C(C)C)N(C)C(=O)C2(CCCC2)NC(=O)[C@@H]2CCCN2C(=O)[C@H](CCc2ccc(C(F)(F)F)c(Cl)c2)NC(=O)CN(C)C(=O)[C@H](CO)N(C)C(=O)[C@@H]2CCN2C(=O)[C@H](C)N(C)C1=O [Compound 1721] ([NMeL]I[NMeA][Aze][NMeS][Sar][hPhe(3-Cl-4-CF3)]P[Ac5c][NMeV][NMeD]-Piperidide; lactam N-11) | 22 | > 500
8 | C#CC[C@H]1C(=O)N(C)[C@H](C(=O)N2CCCCC2)CC(=O)N(C)[C@@H](CC(C)C)C(=O)N[C@@H]([C@@H](C)CC)C(=O)N(C)[C@@H](C)C(=O)N2CC[C@H]2C(=O)N(C)[C@@H](CC2CCCCC2)C(=O)N(C)CC(=O)N[C@@H](CCc2ccc(C(F)(F)F)c(Cl)c2)C(=O)N2CCC[C@H]2C(=O)NC2(CCCC2)C(=O)N1C [Compound 766] ([NMeL]I[NMeA][Aze][NMeCha][Sar][hPhe(3-Cl-4-CF3)]P[Ac5c][NMePra][NMeD]-Piperidide; lactam N-11) | 130 | > 500
9 | CC[C@H](C)[C@@H]1NC(=O)[C@H](C)N(C)C(=O)C[C@@H](C)NC(=O)[C@H](C2CCCC2)N(C)C(=O)C2(CCCC2)NC(=O)[C@@H]2CCCN2C(=O)[C@H](CCc2ccc(C(F)(F)F)c(Cl)c2)NC(=O)CN(C)C(=O)[C@H](Cc2cccnc2)N(C)C(=O)[C@@H]2CCCN2C(=O)CN(C)C1=O [Compound 489] (cyclo([Ac5c][NMeGly(cPent)][d(β3hA)][NMeA]I[Sar]P[NMe3Pal][Sar][hPhe(3-Cl-4-CF3)]P)) | 8.1 | > 500
10 | CC[C@H](C)[C@@H]1NC(=O)[C@H](CC(C)C)N(C)C(=O)C[C@@H](C(=O)N2CCOCC2)N(C)C(=O)[C@H]([C@@H](C)CC)N(C)C(=O)C2(CCCC2)NC(=O)[C@@H]2CCCN2C(=O)[C@H](CCc2ccc(C(F)(F)F)c(F)c2)NC(=O)CN(C)C(=O)[C@H](Cc2ccc(C)cc2)N(C)C(=O)[C@@H]2CCN2C(=O)[C@H](C)N(C)C1=O [Compound 47] ([NMeL]I[NMeA][Aze][NMePhe(4-Me)][Sar][hPhe(3-F,4-CF3)]P[Ac5c][NMeI][NMeD]-Morpholide; lactam N-11) | 1.5 | ≤ 20
11 | CC(C)C[C@H]1C(=O)N[C@@H](C)C(=O)N(C)[C@@H](C)C(=O)N2CC[C@H]2C(=O)N(C)[C@@H](CC2CCCCC2)C(=O)N(C)CC(=O)N[C@@H](CCc2ccc(C(F)(F)F)c(Cl)c2)C(=O)N2CCC[C@H]2C(=O)NC2(CCCC2)C(=O)N(C)[C@@H](C(C)C)C(=O)N(C)[C@H](C(=O)N2CCCCC2)CC(=O)N1C [Compound 1780] ([NMeL]A[NMeA][Aze][NMeCha][Sar][hPhe(3-Cl-4-CF3)]P[Ac5c][NMeV][NMeD]-Piperidide; lactam N-11) | 120 | > 500
12 | CC[C@H](C)[C@@H]1NC(=O)[C@H](CC(C)C)N(C)C(=O)C[C@@H](C)N(C)C(=O)[C@H](CC(C)C)NC(=O)C(C)(C)N(C)C(=O)[C@H](Cc2ccccc2)NC(=O)[C@H](CCc2ccc(C(F)(F)F)c(F)c2)NC(=O)CN(C)C(=O)[C@H](Cc2ccc(Cl)cc2)N(C)C(=O)CN(C)C(=O)CN(C)C1=O [Compound 471] (cyclo(F[NMeAib]L[NMedβ3hAla][NMeL]I[Sar][Sar][NMePhe(4-Cl)][Sar][hPhe(3-F,4-CF3)])) | 58 | > 500
13 | CC[C@H](C)[C@@H]1NC(=O)[C@H](CC(C)C)N(C)C(=O)C[C@@H](C(=O)N2CCCC2)N(C)C(=O)[C@H]([C@@H](C)CC)N(C)C(=O)C2(CCCC2)NC(=O)[C@@H]2CCCN2C(=O)[C@H](CCc2ccc(C(F)(F)F)c(Cl)c2)NC(=O)CN(C)C(=O)[C@H](CC2CCCCC2)N(C)C(=O)[C@@H]2CCN2C(=O)[C@H](C)N(C)C1=O [Compound 1843] ([NMeL]I[NMeA][Aze][NMeCha][Sar][hPhe(3-Cl-4-CF3)]P[Ac5c][NMeI][NMeD]-Pyrrolidide; lactam N-11) | 0.84 | ≤ 20
14 | CC[C@H](C)[C@@H]1NC(=O)[C@H](CC(C)C)N(C)C(=O)C[C@@H](C(=O)N2CCOCC2)N(C)C(=O)[C@H]([C@@H](C)CC)N(C)C(=O)C2(CCCC2)NC(=O)[C@@H]2CC(F)(F)CN2C(=O)[C@H](CCc2ccc(C(F)(F)F)c(Cl)c2)NC(=O)CN(C)C(=O)[C@H](Cc2ccc(C(F)(F)F)cc2)N(C)C(=O)[C@@H]2CCN2C(=O)[C@H](C)N(C)C1=O [Compound 1311] ([NMeL]I[NMeA][Aze][NMePhe(4-CF3)][Sar][hPhe(3-Cl-4-CF3)][Pro(4,4-F2)][Ac5c][NMeI][NMeD]-Morpholide; lactam N-11) | 0.51 | ≤ 20
15 | CC[C@H](C)[C@@H]1NC(=O)[C@H](CC(C)C)N(C)C(=O)C[C@@H](C(=O)N2CCCCC2)N(C)C(=O)[C@H](C(C)C)N(C)C(=O)C2(CCCC2)NC(=O)[C@H](C)N(C)C(=O)[C@H](CCc2ccc(C(F)(F)F)c(Cl)c2)NC(=O)CN(C)C(=O)[C@H](CC2CCCCC2)N(C)C(=O)CN(C)C(=O)CN(C)C1=O [Compound 939] ([NMeL]I[Sar][Sar][NMeCha][Sar][hPhe(3-Cl-4-CF3)][NMeA][Ac5c][NMeV][NMeD]-Piperidide; lactam N-11) | 8 | > 500
16 | CC[C@H](C)[C@@H]1NC(=O)[C@H](CC(C)C)N(C)C(=O)C[C@@H](C)N(C)C(=O)[C@H](CC(C)C)NC(=O)C(C)(C)N(C)C(=O)[C@H](C(C)C)NC(=O)[C@H](CCc2ccc(C(F)(F)F)c(F)c2)NC(=O)CN(C)C(=O)[C@H](Cc2ccc(Cl)cc2)N(C)C(=O)CN(C)C(=O)CN(C)C1=O [Compound 1054] (cyclo(I[Sar][Sar][NMePhe(4-Cl)][Sar][hPhe(3-F,4-CF3)]V[NMeAib]L[NMedβ3hAla][NMeL])) | 120 | > 500
